Tests used:
Format in all cases: in vivo
Apera spica-venti = test: Test Example 4: herbicidal effect by soil treatment (symbol L); settings: application herbicide amount 320 g/ha
Outline: (§1)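 Seeds were sown in sterilized diluvial soil, covered with about 1.5 cm of soil, and the soil surface was sprayed with a water-diluted emulsion of the compound at a predetermined rate. Plants grew in a greenhouse at 25° C. to 30° C.; effects were scored visually 3 weeks after application.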

Amaranthus retroflexus [1] = test: Test Example 5: herbicidal effect by foliage application, plastic box (symbol N); settings: 320 g/ha, 3 weeks after application
Outline: (§2)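 Sowing in sterilized diluvial soil, 14 days' greenhouse growth at 25° C. to 30° C., then uniform small-sprayer foliar application of aqueous emulsion dilution; plants scored three weeks afterwards.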

beet = test: Test Example 4: effect on crop by soil treatment (symbol f); settings: application herbicide amount 320 g/ha
Outline: (§3)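 Seeds were sown in spots on sterilized diluvial soil in a plastic box and covered with about 1.5 cm of soil. Plants were then grown in a greenhouse at 25° C. to 30° C.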

Avena fatua = test: Test Example 4: herbicidal effect by soil treatment (symbol I); settings: application herbicide amount 320 g/ha
Outline: as §1

[2] = system: Echinochloa crus-galli var. crus-galli; test: Test Example 5: herbicidal effect by foliage application, plastic box (symbol H); settings: 320 g/ha, 3 weeks after application
Outline: as §2

Monochoria vaginalis = test: Test Example 1: herbicidal activity, application before weed generation in submerged conditions (symbol C); settings: application herbicide amount 320 g/ha
Outline: (§4)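 Scores run 0 to 5 by herbicidal ratio, with 5 meaning 90% or more and 0 meaning 5% or lower, read 3 weeks after treatment. Compound was applied as a diluted emulsion to the water surface of submerged alluvial-soil pots on the day weed seeds were sown.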

Setaria viridis [3] = test: Test Example 4: herbicidal effect by soil treatment (symbol G); settings: application herbicide amount 320 g/ha
Outline: as §1

Chenopodium album [4] = test: Test Example 5: herbicidal effect by foliage application, plastic box (symbol O); settings: 320 g/ha, 3 weeks after application
Outline: as §2

Galium spurium = test: Test Example 5: herbicidal effect by foliage application, plastic box (symbol Q); settings: 320 g/ha, 3 weeks after application
Outline: as §2

wheat = test: Test Example 4: effect on crop by soil treatment (symbol e); settings: application herbicide amount 320 g/ha
Outline: as §3

Abutilon theophrasti = test: Test Example 5: herbicidal effect by foliage application, plastic box (symbol M); settings: 320 g/ha, 3 weeks after application
Outline: as §2

soybean [5] = test: Test Example 4: effect on crop by soil treatment (symbol d); settings: application herbicide amount 320 g/ha
Outline: as §3

Chenopodium album [6] = test: Test Example 4: herbicidal effect by soil treatment (symbol O); settings: application herbicide amount 320 g/ha
Outline: as §1

Scirpus juncoides = test: Test Example 1: herbicidal activity, application before weed generation in submerged conditions (symbol B); settings: application herbicide amount 320 g/ha
Outline: as §4

soybean [7] = test: Test Example 5: effect on crop by foliage application, plastic box (symbol d); settings: 320 g/ha, 3 weeks after application
Outline: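 Soil: sterilized diluvial. Container: plastic box, 21 × 13 cm, 7 cm deep. Sowing: spot-like, ~1.5 cm cover. Growth: greenhouse, 25° C. to 30° C.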

Amaranthus retroflexus [8] = test: Test Example 4: herbicidal effect by soil treatment (symbol N); settings: application herbicide amount 320 g/ha
Outline: as §1

Lolium multiflorum Lam. = test: Test Example 4: herbicidal effect by soil treatment (symbol K); settings: application herbicide amount 320 g/ha
Outline: as §1

Setaria viridis [9] = test: Test Example 5: herbicidal effect by foliage application, plastic box (symbol G); settings: 320 g/ha, 3 weeks after application
Outline: as §2

[10] = system: Echinochloa crus-galli var. crus-galli; test: Test Example 3: herbicidal effect by foliage application, Wagner pot (symbol H); settings: application herbicide amount 320 g/ha
Outline: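 Herbicidal activity was rated three weeks after a foliar spray of diluted emulsion concentrate, applied at a predetermined dose to plants grown for 14 days from seed in waterlogged alluvial soil within a 25–30 °C greenhouse.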

| SMILES | L: Apera spica-venti, herbicidal effect grade (Apera spica-venti) | N: Amaranthus retroflexus, herbicidal effect grade (Amaranthus retroflexus [1]) | f: beet, effect on crop grade (beet) | I: Avena fatua, herbicidal effect grade (Avena fatua) | H: Echinochloa crus-galli var. crus-galli, herbicidal effect grade [2] | Herbicidal effect grade, C: Monochoria vaginalis (Monochoria vaginalis) | G: Setaria viridis, herbicidal effect grade (Setaria viridis [3]) | O: Chenopodium album, herbicidal effect grade (Chenopodium album [4]) | Q: Galium spurium, herbicidal effect grade (Galium spurium) | e: wheat, effect on crop grade (wheat) | M: Abutilon theophrasti, herbicidal effect grade (Abutilon theophrasti) | d: soybean, effect on crop grade (soybean [5]) | O: Chenopodium album, herbicidal effect grade (Chenopodium album [6]) | Herbicidal effect grade, B: Scirpus juncoides (Scirpus juncoides) | d: soybean, effect on crop grade (soybean [7]) | N: Amaranthus retroflexus, herbicidal effect grade (Amaranthus retroflexus [8]) | K: Lolium multiflorum Lam., herbicidal effect grade (Lolium multiflorum Lam.) | G: Setaria viridis, herbicidal effect grade (Setaria viridis [9]) | herbicidal effect on H (Echinochloa crus-galli var. crus-galli), grade 0-5 [10] |
| --- | --- | --- | --- | --- | --- | --- | --- | --- | --- | --- | --- | --- | --- | --- | --- | --- | --- | --- | --- |
| Cc1cc(C)c(C2=C(O)CC(CC(=O)Cc3ccccc3)C2=O)c(C)c1 (stereo not shown) [2-015] | 3 (Herbicidal ratio of 40% or higher and lower than 70%) | 0 (Herbicidal ratio of 5% or lower (almost no effect)) | 0 (Herbicidal ratio of 5% or lower (almost no effect)) | 0 (Herbicidal ratio of 5% or lower (almost no effect)) | 5 (Herbicidal ratio of 90% or more (almost completely withered)) | 0 (Herbicidal ratio of 5% or lower (almost no effect)) | 3 (Herbicidal ratio of 40% or higher and lower than 70%) | 0 (Herbicidal ratio of 5% or lower (almost no effect)) | 0 (Herbicidal ratio of 5% or lower (almost no effect)) | 0 (Herbicidal ratio of 5% or lower (almost no effect)) | 1 (Herbicidal ratio of 5% or higher and lower than 20%) | 0 (Herbicidal ratio of 5% or lower (almost no effect)) | 0 (Herbicidal ratio of 5% or lower (almost no effect)) | 4 (Herbicidal ratio of 70% or higher and lower than 90%) | 1 (Herbicidal ratio of 5% or higher and lower than 20%) | 0 (Herbicidal ratio of 5% or lower (almost no effect)) | 5 (Herbicidal ratio of 90% or more (almost completely withered)) | 5 (Herbicidal ratio of 90% or more (almost completely withered)) | 1 (Herbicidal ratio of 5% or higher and lower than 20%) |
| CON=C(C)CC1CC(O)=C(c2c(C)cc(-c3ccccc3)cc2C)C1=O (stereo not shown) [6-015] | 5 (Herbicidal ratio of 90% or more (almost completely withered)) | 2 (Herbicidal ratio of 20% or higher and lower than 40%) | 0 (Herbicidal ratio of 5% or lower (almost no effect)) | 0 (Herbicidal ratio of 5% or lower (almost no effect)) | 5 (Herbicidal ratio of 90% or more (almost completely withered)) | 5 (Herbicidal ratio of 90% or more (almost completely withered)) | 5 (Herbicidal ratio of 90% or more (almost completely withered)) | 4 (Herbicidal ratio of 70% or higher and lower than 90%) | 2 (Herbicidal ratio of 20% or higher and lower than 40%) | 0 (Herbicidal ratio of 5% or lower (almost no effect)) | 2 (Herbicidal ratio of 20% or higher and lower than 40%) | 0 (Herbicidal ratio of 5% or lower (almost no effect)) | 3 (Herbicidal ratio of 40% or higher and lower than 70%) | 5 (Herbicidal ratio of 90% or more (almost completely withered)) | 3 (Herbicidal ratio of 40% or higher and lower than 70%) | 5 (Herbicidal ratio of 90% or more (almost completely withered)) | 5 (Herbicidal ratio of 90% or more (almost completely withered)) | 5 (Herbicidal ratio of 90% or more (almost completely withered)) | 5 (Herbicidal ratio of 90% or more (almost completely withered)) |
| CCc1cc(-n2cc(Cl)cn2)cc(C)c1C1=C(O)CC(CC(C)=NOC)C1=O (mixture of isomers) [6-005] | 5 (Herbicidal ratio of 90% or more (almost completely withered)) | 4 (Herbicidal ratio of 70% or higher and lower than 90%) | 0 (Herbicidal ratio of 5% or lower (almost no effect)) | 4 (Herbicidal ratio of 70% or higher and lower than 90%) | 5 (Herbicidal ratio of 90% or more (almost completely withered)) | 3 (Herbicidal ratio of 40% or higher and lower than 70%) | 5 (Herbicidal ratio of 90% or more (almost completely withered)) | 3 (Herbicidal ratio of 40% or higher and lower than 70%) | 3 (Herbicidal ratio of 40% or higher and lower than 70%) | 4 (Herbicidal ratio of 70% or higher and lower than 90%) | 5 (Herbicidal ratio of 90% or more (almost completely withered)) | 1 (Herbicidal ratio of 5% or higher and lower than 20%) | 0 (Herbicidal ratio of 5% or lower (almost no effect)) | 5 (Herbicidal ratio of 90% or more (almost completely withered)) | 4 (Herbicidal ratio of 70% or higher and lower than 90%) | 0 (Herbicidal ratio of 5% or lower (almost no effect)) | 5 (Herbicidal ratio of 90% or more (almost completely withered)) | 5 (Herbicidal ratio of 90% or more (almost completely withered)) | 5 (Herbicidal ratio of 90% or more (almost completely withered)) |
| CCOC(=O)C(C(=O)c1ccccn1)C1CC(O)=C(c2c(C)cc(C)cc2C)C1=O (stereo not shown) [2-013] | 0 (Herbicidal ratio of 5% or lower (almost no effect)) | 0 (Herbicidal ratio of 5% or lower (almost no effect)) | 0 (Herbicidal ratio of 5% or lower (almost no effect)) | 0 (Herbicidal ratio of 5% or lower (almost no effect)) | 5 (Herbicidal ratio of 90% or more (almost completely withered)) | 0 (Herbicidal ratio of 5% or lower (almost no effect)) | 1 (Herbicidal ratio of 5% or higher and lower than 20%) | 1 (Herbicidal ratio of 5% or higher and lower than 20%) | 1 (Herbicidal ratio of 5% or higher and lower than 20%) | 0 (Herbicidal ratio of 5% or lower (almost no effect)) | 0 (Herbicidal ratio of 5% or lower (almost no effect)) | 0 (Herbicidal ratio of 5% or lower (almost no effect)) | 0 (Herbicidal ratio of 5% or lower (almost no effect)) | 0 (Herbicidal ratio of 5% or lower (almost no effect)) | 0 (Herbicidal ratio of 5% or lower (almost no effect)) | 0 (Herbicidal ratio of 5% or lower (almost no effect)) | 1 (Herbicidal ratio of 5% or higher and lower than 20%) | 5 (Herbicidal ratio of 90% or more (almost completely withered)) | 0 (Herbicidal ratio of 5% or lower (almost no effect)) |

Reference: patent US11000033B2, “Ketone or oxime compound, and herbicide” (NISSAN CHEMICAL CORPORATION, priority 2014, dated 2021)
